Results on 9 molecules are retold here after article doi:10.1101/2022.03.12.484055v1 (biorxiv, 2022).

The target of one assay is T1, ASIC1 (hASIC1; ASIC1a as primary isoform in tsA-201 cells) (Homo sapiens, UniProt P78348).
T1 sequence (P78348 1-528): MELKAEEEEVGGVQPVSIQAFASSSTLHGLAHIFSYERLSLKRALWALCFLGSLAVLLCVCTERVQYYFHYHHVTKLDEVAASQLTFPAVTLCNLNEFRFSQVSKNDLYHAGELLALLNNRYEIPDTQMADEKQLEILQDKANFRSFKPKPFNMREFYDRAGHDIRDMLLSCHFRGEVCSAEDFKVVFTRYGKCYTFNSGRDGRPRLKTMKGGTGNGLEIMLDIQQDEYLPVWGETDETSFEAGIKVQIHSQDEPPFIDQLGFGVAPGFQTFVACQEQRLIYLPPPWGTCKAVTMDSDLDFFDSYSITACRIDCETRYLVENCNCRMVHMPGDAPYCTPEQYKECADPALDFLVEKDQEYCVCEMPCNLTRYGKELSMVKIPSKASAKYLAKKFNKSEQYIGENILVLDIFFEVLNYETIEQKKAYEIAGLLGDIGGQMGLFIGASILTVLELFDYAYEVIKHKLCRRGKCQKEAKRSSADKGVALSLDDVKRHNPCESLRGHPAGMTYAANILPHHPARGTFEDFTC
The experiment in a line: automated patch clamp, single concentration. It is filed as cell-based. Particulars: tsA201, read-out: % inhibition @ 30 µM.
On to `COc1ccc2oc(-c3nc(C(=O)NC(=N)N)c(N)nc3N)cc2c1` [compound 29, 29], for which the inhibition at 30 µM came out at 82 ± 1%.

As to `N=C(N)NC(=O)c1nc(-c2cc3cc(F)ccc3o2)c(N)nc1N` [compound 23, 23], the inhibition at 30 µM was 82 ± 1%.

With `CC(C)(C)c1ccc2oc(-c3nc(C(=O)NC(=N)N)c(N)nc3N)cc2c1` [compound 21, 21], the inhibition at 30 µM came to 71 ± 2%.

Take `N=C(N)NC(=O)c1nc(-c2ccco2)c(N)nc1N` [compound 14, 14]: the inhibition at 30 µM stood at 75 ± 1%.

For the molecule `N=C(N)NC(=O)c1nc(-c2cc3cc(F)cc(F)c3o2)c(N)nc1N` [compound 35, 35], the inhibition at 30 µM worked out at 76 ± 3%.

Another assay has as its target T1, ASIC1 (hASIC1; ASIC1a as primary isoform in tsA-201 cells). The assay can be described thus: cell-based. Particulars: tsA201, read-out: % inhibition @ 30 µM.
For the molecule `N=C(N)NC(=O)c1nc(-c2cc3ccccc3o2)c(N2CCCC2)nc1N` [compound 59, 59], the inhibition at 30 µM is 59%.

As for `N=C(N)NC(=O)c1nc(-c2cc3ccccc3o2)c(NCc2ccccc2)nc1N` [compound 65, 65], the inhibition at 30 µM stood at 39%.

For the molecule `CCN(c1nc(N)c(C(=O)NC(=N)N)nc1-c1cc2ccccc2o1)C(C)C` [compound 62, 62], the inhibition at 30 µM amounted to 46%.

Regarding `N=C(N)NC(=O)c1nc(-c2cc3ccccc3o2)c(N2CCCCC2)nc1N` [compound 60, 60], the inhibition at 30 µM is 54%.

For orientation: inhibition means the share of the control response that was lost under treatment.
